Experimental data from ChEMBL document CHEMBL3885861, “Open TG-GATES”.

Species: Rattus norvegicus
Experiment: Open TG-GATES - Regimen: Single
Format: toxicity, organism-based, Sprague-Dawley
Parameters: regimen Single, gender Male, age 6 weeks
Conditions: in vivo, po, route gavage; for Bas / Eos / Fbg / Hb / Ht / Lym / MCHC / MCV / Mono / Neu / RBC / Ret / WBC / Plat: tissue Blood; for KIDNEY_TOTAL: tissue Kidney; for LIVER: tissue Liver; for ALT / AST / BUN / CRE / Ca / Cl / DBIL / GLC / IP / K / LDH / Na / PL / RALB / TBIL / TC / TP / gamma-GTP: tissue Plasma
[1] = 0 mg/kg, 3 h, dose level Control
[2] = 0 mg/kg, 6 h, dose level Control
[3] = 0 mg/kg, 9 h, dose level Control
[4] = 0 mg/kg, 24 h, dose level Control

Compound: C[C@@H]1C[C@H]2[C@@H]3CCC4=CC(=O)C=C[C@]4(C)[C@@]3(F)[C@@H](O)C[C@]2(C)[C@@]1(O)C(=O)CO [DEXAMETHASONE]
- TERMINAL_BW [1]: 213.8 g
- Bas [1]: 0%
- Eos [1]: 1%
- Fbg [1]: 235.6 mg/dL
- Hb [1]: 13 g/dL
- Ht [1]: 39.6%
- Lym [1]: 74.6%
- MCHC [1]: 32.7%
- MCV [1]: 64.5 fL
- Mono [1]: 7%
- Neu [1]: 18%
- RBC [1]: 615 x10_4/ul
- Ret [1]: 8.3%
- WBC [1]: 98.2 x10_2/uL
- KIDNEY_TOTAL [1]: 0.6 g
- LIVER [1]: 10.5 g
- ALT [1]: 38.4 IU/L
- AST [1]: 70.4 IU/L
- BUN [1]: 11.2 mg/dL
- CRE [1]: 0.4 mg/dL
- Ca [1]: 10.9 mg/dL
- Cl [1]: 103.4 meq/L
- DBIL [1]: 0.012 mg/dL
- GLC [1]: 193.2 mg/dL
- IP [1]: 9.8 mg/dL
- K [1]: 4.1 meq/L
- LDH [1]: 79.4 IU/L
- Na [1]: 140.8 meq/L
- PL [1]: 140.6 mg/dL
- RALB [1]: 3.7 g/dL
- TBIL [1]: 0.044 mg/dL
- TC [1]: 79 mg/dL
- TP [1]: 5.3 g/dL
- gamma-GTP [1]: 0.8 IU/L
- TERMINAL_BW [2]: 209.7 g
- Bas [2]: 0%
- Eos [2]: 0.6%
- Fbg [2]: 234.6 mg/dL
- Hb [2]: 13.3 g/dL
- Ht [2]: 40.4%
- Lym [2]: 80.6%
- MCHC [2]: 32.9%
- MCV [2]: 64.6 fL
- Mono [2]: 4.4%
- Plat [2]: 118.9 x10_4/uL
- RBC [2]: 627.4 x10_4/ul
- Ret [2]: 7.5%
- WBC [2]: 103.8 x10_2/uL
- KIDNEY_TOTAL [2]: 0.7 g
- LIVER [2]: 9.7 g
- ALT [2]: 34.2 IU/L
- AST [2]: 65.2 IU/L
- BUN [2]: 10.2 mg/dL
- CRE [2]: 0.4 mg/dL
- Ca [2]: 11 mg/dL
- Cl [2]: 103.8 meq/L
- DBIL [2]: 0.014 mg/dL
- GLC [2]: 164.8 mg/dL
- IP [2]: 9.5 mg/dL
- K [2]: 4.3 meq/L
- LDH [2]: 74.2 IU/L
- Na [2]: 140.2 meq/L
- PL [2]: 149.6 mg/dL
- RALB [2]: 3.9 g/dL
- TBIL [2]: 0.06 mg/dL
- TC [2]: 84.8 mg/dL
- TP [2]: 5.6 g/dL
- gamma-GTP [2]: 0 IU/L
- TERMINAL_BW [3]: 215.1 g
- Bas [3]: 0%
- Eos [3]: 1%
- Fbg [3]: 233.2 mg/dL
- Hb [3]: 13.2 g/dL
- Ht [3]: 39.9%
- Lym [3]: 73.2%
- MCHC [3]: 33%
- MCV [3]: 63.7 fL
- Mono [3]: 7%
- Neu [3]: 19%
- Plat [3]: 125.1 x10_4/uL
- RBC [3]: 626.8 x10_4/ul
- Ret [3]: 7.8%
- WBC [3]: 104.7 x10_2/uL
- KIDNEY_TOTAL [3]: 0.7 g
- LIVER [3]: 9.4 g
- ALT [3]: 30.6 IU/L
- AST [3]: 59.4 IU/L
- BUN [3]: 11 mg/dL
- CRE [3]: 0.3 mg/dL
- Ca [3]: 10.5 mg/dL
- Cl [3]: 104 meq/L
- DBIL [3]: 0.01 mg/dL
- GLC [3]: 171.4 mg/dL
- IP [3]: 10.1 mg/dL
- K [3]: 4.4 meq/L
- LDH [3]: 80.4 IU/L
- Na [3]: 140.8 meq/L
- PL [3]: 141.8 mg/dL
- RALB [3]: 3.8 g/dL
- TBIL [3]: 0.046 mg/dL
- TC [3]: 82.8 mg/dL
- TP [3]: 5.5 g/dL
- gamma-GTP [3]: 0.8 IU/L
- TERMINAL_BW [4]: 229.3 g
- Bas [4]: 0%
- Eos [4]: 1%
- Fbg [4]: 239.6 mg/dL
- Hb [4]: 13.2 g/dL
- Ht [4]: 40.1%
- Lym [4]: 73.4%
- MCHC [4]: 33%
- MCV [4]: 65.6 fL
- Mono [4]: 10.2%
- Neu [4]: 15.6%
- Plat [4]: 124.7 x10_4/uL
- RBC [4]: 611.2 x10_4/ul
- Ret [4]: 7.6%
- WBC [4]: 107 x10_2/uL
- KIDNEY_TOTAL [4]: 0.7 g
- LIVER [4]: 11.3 g
- ALT [4]: 40.6 IU/L
- AST [4]: 67.2 IU/L
- BUN [4]: 15.8 mg/dL
- CRE [4]: 0.4 mg/dL
- Ca [4]: 10.9 mg/dL
- Cl [4]: 103 meq/L
- DBIL [4]: 0.014 mg/dL
- GLC [4]: 192.6 mg/dL
- IP [4]: 8 mg/dL
- K [4]: 4.4 meq/L
- LDH [4]: 89.8 IU/L
- Na [4]: 140 meq/L
- PL [4]: 172.2 mg/dL
- RALB [4]: 3.9 g/dL
- TBIL [4]: 0.04 mg/dL
- TC [4]: 95.4 mg/dL
- TP [4]: 5.7 g/dL
- gamma-GTP [4]: 0 IU/L
- TERMINAL_BW (1 mg/kg, 3 h, dose level Low): 220.4 g
